Substitutions are numbered along the chain they refer to.
Assays:
Type in all cases: biochemical
[1] = molecular target: T1, PPIP5K2^KD (kinase domain of human PPIP5K2) (Homo sapiens, UniProt O43314); test: Reverse-kinase assay: ADP-driven dephosphorylation of 1,5-[PP]2-InsP4, luminescence-based assay of ATP accumulation; conditions: for IC50: 100 nM [PP]2-InsP4, key of Figure 4B, n = 3, read-out: IC50, inhibition of ADP-driven dephosphorylation of [PP]2-InsP4
T1 construct: The kinase domain of human PPIP5K2 (PPIP5K2^KD; residues 1–366); made in house
T1 sequence (O43314 1-366): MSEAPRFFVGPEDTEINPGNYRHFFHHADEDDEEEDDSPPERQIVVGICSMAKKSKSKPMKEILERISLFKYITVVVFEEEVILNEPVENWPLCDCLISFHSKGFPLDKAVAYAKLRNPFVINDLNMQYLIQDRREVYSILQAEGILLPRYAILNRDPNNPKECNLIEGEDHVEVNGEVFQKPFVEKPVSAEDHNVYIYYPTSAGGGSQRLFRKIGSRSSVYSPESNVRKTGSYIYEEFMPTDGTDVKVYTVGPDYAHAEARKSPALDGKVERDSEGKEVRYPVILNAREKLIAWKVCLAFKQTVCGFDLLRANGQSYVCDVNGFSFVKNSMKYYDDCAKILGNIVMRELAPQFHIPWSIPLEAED
Method: The six compounds that were selected for the dose-response curves in the assays of ATP hydrolysis (Figure 4A) were now investigated for their effects upon diphosphoinositol polyphosphate metabolism by PPIP5K2^KD (Figure 4B). We used a high-throughput reverse-kinase assay that records ATP generated from ADP during the dephosphorylation of 100 nM 1,5-[PP]2-InsP4 ([Riley et al., 2012; Weaver et al., 2013]). Each of the tested analogs inhibited [PP]2-InsP4 metabolism by PPIP5K2^KD (Figure 4B). […] However, the inhibition by 2,5-di-O-Bn-InsP4 (10) was more unexpected because due to its bulk, and its less negative charge compared to physiological substrates, we predict it to be a poor ligand for the active site of the highly specific PPIP5K2^KD ([Wang et al., 2012]). Nevertheless, its ability to inhibit reverse-kinase activity was directly confirmed by high-performance liquid chromatography (HPLC) analysis of [PP]2-[^3H]InsP4 dephosphorylation (Figures S1A–S1C available online).
(§1) The initial InsP6 concentration was either 500 nM, 70 nM, or 40 nM. Various concentrations of 2,5-di-O-Bn-InsP4 were present as indicated. Radioactivity was assessed using an in-line Flo1 detector. The ADP-driven dephosphorylation of 100 nM 1,5-[PP]2-InsP4 by PPIP5K2^KD was usually determined by a luminescence-based assay of ATP accumulation ([Riley et al., 2012; Weaver et al., 2013]). The IC50 values were determined using GraphPad Prism v6.02 (n ≥ 3). In some experiments, 1,5-[PP]2-[^3H]InsP4 dephosphorylation by PPIP5K2^KD was assayed in 50 μl buffer containing 50 mM KCl, 20 mM HEPES pH 7.0, 7 mM MgSO4, 5 mM ADP, 1 mM EDTA. Reactions were then quenched, neutralized, and analyzed with HPLC using a Partisphere SAX column ([Weaver et al., 2013]); 1 ml fractions were collected for liquid scintillation spectrometry. The ATPase activity of PPIP5K2^KD (10–270 μg/ml) was assayed from Pi release following incubation at 37°C for 120–180 min in 20 μl reaction mixtures containing 20 mM Tris/HCl, pH 7.5, 10 mM ATP, 100 mM KCl, 0.1 mM EDTA, and 13 mM MgCl2.

[2] = molecular target: T2, PPIP5K2^KD K103A mutant (Homo sapiens, UniProt O43314, K103A); test: ATPase activity of K103A mutant; conditions: Figures 7B and 7C
T2 construct: The kinase domain of human PPIP5K2 (PPIP5K2^KD; residues 1–366); made in house
T2 sequence (O43314 1-366 K103A): T1 sequence (O43314 1-366) with K103A
Method: as §1
Protein Expression, Purification, Crystallization and Structure Determination […]
(§2) The structure was further manually rebuilt with COOT and refined with PHENIX and
(§3) REFMAC from the CCP4 package. Ligand topology and parameter files were prepared using
the PRODRG server. The molecular graphics representations were prepared with the program […]

[3] = molecular target: T3, PPIP5K2^KD E192Q mutant (Homo sapiens, UniProt O43314, E192Q); test: ATPase activity of E192Q mutant; conditions: 25 μM, Figure 7E
T3 construct: The kinase domain of human PPIP5K2 (PPIP5K2^KD; residues 1–366); made in house
T3 sequence (O43314 1-366 E192Q): T1 sequence (O43314 1-366) with E192Q
Method: as §1
Protein Expression, Purification, Crystallization and Structure Determination
Full-length human IP6K2, the kinase domain of human PPIP5K2 (PPIP5K2KD; residues 1-
366), and the N-terminally truncated domain used for the crystallography studies (residues
41-366) were all sub-cloned, expressed and purified as before (Wang et al., 2012; Weaver et
al., 2013). […]
as §2, §3
the PRODRG server. The molecular graphics representations were prepared with the program
PyMol (Schrödinger, LLC). The 2D ligand-protein interaction diagrams were generated by
LigPlot+. Atomic coordinates and structure factors have been deposited with the Protein Data
Bank with accession codes: 4NZM, 4NZN, 4NZO.
Mutants were generated using a site-directed mutagenesis kit (Stratagene). Pairs of complementary
primers were designed as shown below, with mutagenic primers underlined (only 5’ primers are […]

Structure (SMILES)	inhibition of [PP]2-InsP4 metabolism (in words) ([1]; 100 nM 1,5-[PP]2-InsP4, Figure 4B)	IC50 [1] [µM]	analog-activated ATPase activity compared to wild-type enzyme (in words) [2]	rate of ligand-stimulated ATPase activity vs wild-type (in words) [3]
O=C(CP(=O)(O)O)O[C@@H]1[C@@H](OP(=O)(O)O)[C@H](OP(=O)(O)O)[C@H](OCc2ccccc2)[C@H](OP(=O)(O)O)[C@H]1OP(=O)(O)O [compound 2, 2-O-benzyl-5-O-α-phosphonoacetyl-myo-inositol 1,3,4,6-tetrakisphosphate]	equally efficient	0.42	only a slight reduction	neither of these particular mutations altered the rate
O=P(O)(O)O[C@@H]1[C@@H](OCc2ccccc2)[C@H](OP(=O)(O)O)[C@@H](OP(=O)(O)O)[C@@H](OCc2ccccc2)[C@H]1OP(=O)(O)O [compound 10, 2,5-di-O-Bn-InsP4]	–	0.17	only a slight reduction	neither of these particular mutations altered the rate

From paper PMC4085797, “Synthetic Inositol Phosphate Analogs Reveal that PPIP5K2 Has a Surface-Mounted Substrate Capture Site that Is a Target for Drug Discovery” (Chemistry & Biology, 2014)
